# In US20240317748A1, “CARBONYL SUBSTITUTED DIAZASPIRO COMPOUNDS AND ITS USE” (BIONOVA PHARMACEUTICALS (SHANGHAI) LIMITED, priority 2021, published 2024):
# How the values were obtained:
# Menin-MLL1 = target: T1, Menin-MLL1 (Homo sapiens, UniProt O00255); assay: Menin-MLL1 inhibition assay (fluorescence polarization, Menin protein + FAM-MLL peptide); assay type: binding; details: Menin (2-610) isoform 2, FAM-labelled MLL peptide, mP readout; read-out: Biochemical assay Menin-MLL1 IC50
# T1 construct: Menin (2-610) isform2; purchased ChemPartner 2020111101
# T1 sequence (O00255 2-610): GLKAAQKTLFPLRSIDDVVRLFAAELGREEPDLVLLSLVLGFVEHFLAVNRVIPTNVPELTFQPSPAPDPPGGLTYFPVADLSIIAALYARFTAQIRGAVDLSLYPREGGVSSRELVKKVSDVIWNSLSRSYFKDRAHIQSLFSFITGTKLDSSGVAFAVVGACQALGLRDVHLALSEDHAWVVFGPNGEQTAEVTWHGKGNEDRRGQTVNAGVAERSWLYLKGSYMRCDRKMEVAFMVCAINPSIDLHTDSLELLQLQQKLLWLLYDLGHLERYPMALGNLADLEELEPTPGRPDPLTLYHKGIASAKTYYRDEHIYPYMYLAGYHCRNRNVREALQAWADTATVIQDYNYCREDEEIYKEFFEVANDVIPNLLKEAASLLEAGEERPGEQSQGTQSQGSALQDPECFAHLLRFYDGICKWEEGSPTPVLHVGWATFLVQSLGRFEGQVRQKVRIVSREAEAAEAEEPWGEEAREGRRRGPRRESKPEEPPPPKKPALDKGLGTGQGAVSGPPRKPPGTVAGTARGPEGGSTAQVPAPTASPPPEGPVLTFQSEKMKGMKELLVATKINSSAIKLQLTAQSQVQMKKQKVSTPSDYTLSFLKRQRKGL
# [1] = Liver microsome stability study; assay type: in vitro ADME; details: human liver microsomes 0.5 mg/mL, 1 μM compound, NADPH, 37° C.
# Experimental: Studies were carried out in liver microsomes (Corning, 0.5 mg/mL). Stock solutions were prepared at 10 mM in DMSO for the test compounds. Aliquots of the stock solutions were diluted to 0.5 mM with acetonitrile, and then further diluted upon the addition of liver microsomes/buffer to 1.5 μM. An aliquot of 30 μL of 1.5 μM solutions was mixed with 15 μL of 6 mM NADPH and the final concentration of NADPH was 2 mM, which had been pre-warmed to 37° C. Test compounds and Ketanserin final concentrations were 1 μM. The plates were kept in a 37° C. water bath for the duration of the experiment. At each time point (0, 5, 15, 30, 45 minutes), 135 μL of acetonitrile was added into corresponding wells. After the final time point was quenched by acetonitrile, the assay plates were shaken at the vibrator (IKA, MTS 2/4) for 10 min (600 rpm/min) and then centrifuged at 5,594 g for 15 min (Thermo Multifuge×3R). Aliquots of the supernatant were taken, diluted 1:1 into distilled water, and analyzed by LC-MS/MS. The peak area response ratio to internal standard (PARR) of the compounds at 5, 15, 30, 45 minutes was compared to the PARR at time 0 to determine the percent of test compound remaining at each time point. Half-lives were calculated using Excel software, fitting to a single-phase exponential decay equation.
# OCI-AML3 cells = assay: Cell proliferation assay (CellTiter-Glo), OCI-AML3; assay type: cell-based, human; details: OCI-AML3 (NPM1c mutation), 5 days incubation; read-out: Cell antiproliferation assay OCI-AML3 IC50
# Experimental: (§1) The antiproliferative activity of test compounds was assessed in human leukemia cell lines. The cell line MV4-11, MOLM13 and OCI-AML3, which expresses the MLL fusion protein MLL-AF4, MLL-AF9 and carry the NPM1c gene mutation, respectively, were tested. HL-60 was used as a control cell line containing two MLL wildtype alleles in order to exclude compounds that display general cytotoxic effect. MV4-11 cells were cultured in IMDM supplemented with 10% FBS, MOLM13 and OCI-AML3 cells were cultured in RPMI1640 supplemented with 20% FBS, and HL-60 cells were cultured in IMDM supplemented with 20% FBS. Corresponding cells (MV4-11, MOLM13, OCI-AML3 or HL-60 cell line) were seeded in 100 uL medium per well in 96-well plate (white wall with clear bottom, tissue culture treated, Corning, Cat. No. CLS3903; Lot.No. 30419025). Plates were placed in the CO2 incubator overnight. Compounds solution (2 mM starting, 4-fold serial dilution) were prepared and added to the wells containing 100 μL of the culture medium with HPD300 according to the plate map and centrifuge at 1000 rpm for 1 minutes (200-fold dilution totally). MV4-11, MOLM13, OCI-AML3 and HL-60 cells were incubated with the compounds for 4, 12, 5 and 4 days, respectively, under 5% CO2 at 37° C., respectively. 100 μL of CellTiter-Glo reagent (Promega, Cat. No. G7573, Lot. No. 0000416710) was added to the assay plate by Multidrop Combi instrument, contents were mixed for 10 minutes on an orbital shaker to induce cell lysis. After incubation at room temperature for 10 mins, clear bottom with white back seal was pasted and luminescence with Envision was read.
# MOLM13 cells = assay: Cell proliferation assay (CellTiter-Glo), MOLM13; assay type: cell-based, human; details: MOLM13 (MLL-AF9), 12 days incubation; read-out: Cell antiproliferation assay MOLM13 IC50
# Experimental: as §1
# HL-60 cells = assay: Cell proliferation assay (CellTiter-Glo), HL-60 control line; assay type: cell-based, human; details: 4 days incubation
# Experimental: as §1
# MV-4-11 cells = assay: Cell proliferation assay (CellTiter-Glo), MV-4-11; assay type: cell-based, human; details: MV-4-11 (MLL-AF4), 4 days incubation; read-out: Cell antiproliferation assay MV-4-11 IC50
# In short: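 Antiproliferative activity by CellTiter-Glo luminescence; MV4-11 (MLL-AF4) in IMDM/10% FBS, 4 days; MOLM13 (MLL-AF9) in RPMI1640/20% FBS, 12 days; OCI-AML3 (NPM1c) in RPMI1640/20% FBS, 5 days; HL-60 (MLL wild-type control) in IMDM/20% FBS, 4 days. Compounds 4-fold serial from 2 mM stock, 200-fold final dilution; 37 °C, 5% CO2.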
# hERG potassium channel = target: T2, hERG potassium channel (Homo sapiens, UniProt Q12809); assay: hERG inhibition study (Qpatch, CHO-hERG cells); assay type: cell-based; details: highest test concentration 40 μM
# T2 construct: expressed in transfected cells; host or cells: CHO-hERG cells
# T2 sequence (Q12809 whole entry): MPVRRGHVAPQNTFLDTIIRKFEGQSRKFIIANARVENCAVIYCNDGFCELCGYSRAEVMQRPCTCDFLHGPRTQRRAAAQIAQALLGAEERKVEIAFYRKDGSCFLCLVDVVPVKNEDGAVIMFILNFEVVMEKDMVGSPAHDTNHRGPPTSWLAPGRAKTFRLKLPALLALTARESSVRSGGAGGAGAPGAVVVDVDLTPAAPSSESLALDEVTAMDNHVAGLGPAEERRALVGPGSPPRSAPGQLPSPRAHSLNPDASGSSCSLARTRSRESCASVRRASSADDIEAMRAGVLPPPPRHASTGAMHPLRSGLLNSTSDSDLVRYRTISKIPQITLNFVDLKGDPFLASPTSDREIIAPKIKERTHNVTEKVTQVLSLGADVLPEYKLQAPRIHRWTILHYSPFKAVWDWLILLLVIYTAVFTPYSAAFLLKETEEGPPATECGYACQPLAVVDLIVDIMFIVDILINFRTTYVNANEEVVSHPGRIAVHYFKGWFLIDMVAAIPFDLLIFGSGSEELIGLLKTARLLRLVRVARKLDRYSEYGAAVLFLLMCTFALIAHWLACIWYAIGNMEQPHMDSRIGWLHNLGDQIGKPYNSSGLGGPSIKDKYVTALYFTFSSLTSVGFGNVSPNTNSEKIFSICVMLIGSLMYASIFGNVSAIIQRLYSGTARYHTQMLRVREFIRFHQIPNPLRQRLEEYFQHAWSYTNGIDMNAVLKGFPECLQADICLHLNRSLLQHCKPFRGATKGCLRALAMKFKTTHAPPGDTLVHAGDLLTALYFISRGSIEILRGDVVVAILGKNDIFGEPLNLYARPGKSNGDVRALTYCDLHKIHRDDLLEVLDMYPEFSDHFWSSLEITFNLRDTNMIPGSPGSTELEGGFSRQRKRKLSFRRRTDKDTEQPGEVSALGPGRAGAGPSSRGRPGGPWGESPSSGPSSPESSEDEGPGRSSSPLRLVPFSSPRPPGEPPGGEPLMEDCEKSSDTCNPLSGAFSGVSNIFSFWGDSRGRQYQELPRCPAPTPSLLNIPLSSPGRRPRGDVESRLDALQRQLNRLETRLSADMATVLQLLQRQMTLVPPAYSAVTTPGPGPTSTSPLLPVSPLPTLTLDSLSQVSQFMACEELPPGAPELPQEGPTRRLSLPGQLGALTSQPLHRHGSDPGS
# Experimental: The inhibition effects of the test compounds on hERG were carried out in CHO-hERG cells (cell density: 21.5×10˜6/mL). 10 μL compound mother liquor was added to 20 μL DMSO solution, and then continuously diluted to 6 concentrations by 3-fold. The compound solution (4 uL) of six different concentrations were added to the extracellular solution (996 uL) and diluted to the final concentration to be tested (250-fold dilution totally). The highest test concentration was 40.00 μM, followed by […], 13.3, 4.4, 1.48, 0.49 and 0.16 μM. […] The high impedance sealing of single cell and the formation of whole cell model were all completed automatically by Qpatch instrument.
smiles,measurement,setting,value
"CCN(C(=O)c1cc(F)ccc1Oc1cncnc1N1CC2(CCN(C[C@H]3CC[C@H](NS(=O)(=O)CC)CC3)CC2)C1)C(C)C [SNDX-5613, reference compound]",IC50,Menin-MLL1,3.4 nM
same,Human liver microsome T1/2,[1],12 min
same,IC50,OCI-AML3 cells,74.7 nM
same,IC50,MOLM13 cells,21.6 nM
same,IC50,"HL-60 cells; HL-60 control line (MLL wildtype), read-out: Cell antiproliferation assay HL-60 IC50",7970 nM
same,HL-60 (Pct of inhibition at 10 μM),"HL-60 cells; HL-60 control line, 10 μM",98.9%
same,IC50,MV-4-11 cells,8 nM
same,IC50,hERG potassium channel,9600 nM
